Test results from patent US8207188B2, “Treatment of diseases modulated by a H4 receptor agonist” (priority 2006, dated 2012).
“Also recorded” adds a separate entry of the source.

Assays:
[1] = target: T1, Serotonin Transporter (SERT) (Mus musculus, UniProt Q60857); experiment: Serotonin uptake by bone marrow cells; assay type: cell-based, murine
T1 construct: from tissue; host or cells: total bone marrow cells

[2] = tested on: Mouse medullary cells C57B1/6 expressing H4R; experiment: Proliferation of Colony Forming Cells (CFC) in semi-solid media; assay type: cell-based; settings: 7 days; for inhibitory activity of cell proliferation (CFC): Example 20
Method: Using the assay described in Example 15, above, the effect of TRQ or CB on cells expressing H4R was tested. Mouse medullary cells C57B1/6 expressing H4R (50,000 cells/Petri dish) were incubated in a semi-solid media with haematopoietic growth factors (IL-3: 10 ng/ml) for 7 days with TRQ or CB.
Using the assay described in Example 15, above, the effect of TRQ or CB on cells expressing H4R was tested. Mouse medullary cells C57B1/6 expressing H4R (50,000 cells/Petri dish) were incubated in a semi-solid media with haematopoietic growth factors (IL-3: 10 ng/ml) for 7 days with a TRQ (racemic mixture of RR and SS isomers at 1 μM and 10 μM concentration); TRQ isomer E1 (10 μM concentration); TRQ isomer E2 (10 μM concentration) and CB (10 μM concentration).

[3] = tested on: c-kit+ BM cells; experiment: Cell cycle status of c-kit+ BM cells with pertussis toxin; assay type: cell-based, murine; settings: 10 μM, 2 h
Method: Progenitor-enriched murine c-kit^+ BM or cord blood-derived CD34^+ cells were prepared by positive magnetic selection, suspended at a final concentration of 10^5 per ml in serum-free StemSpan medium (StemCell Technologies) and cultured up to 3 days in the presence of 10 ng of IL-3, 10 ng of IL-6 and 50 ng of SCF (Stem Cell Factor) per ml, with or without Clobenpropit (10^−5 M), Tritoqualine or both.
Magnetically sorted c-kit^+ BM cells were incubated for 2 h in StemSpan medium with growth factor cocktail alone or in the presence of 10^−5 M Clobenpropit, Tritoqualine or enantiomers. The cell cycle status was then assessed using Vybrant DyeCycle Violet (VDV) Stain (Invitrogen), according to the manufacturer's instructions.
The effect of Bordetella pertussis toxin (PTX; 100 ng/ml), an inhibitor of Gi/o coupling to the H4R, on the cell cycle arrest promoted by receptor activation was evaluated in the same conditions. After incubation, cells were analyzed using FlowJo software.

[4] = tested on: Mouse medullary cells C57B1/6 expressing H4R; experiment: Percentage of cells at G0/G1 phase, TRQ racemate and enantiomers with and without CB (Example 21); assay type: cell-based
Method: This experiment was conducted at two concentrations for all TRQ molecules (10 μM and 1 μM) in the presence and absence of CB (10 μM).
Using the assay described in Example 15, above, the effect of TRQ or CB on cells expressing H4R was tested. Mouse medullary cells C57B1/6 expressing H4R (50,000 cells/Petri dish) were incubated in a semi-solid media with haematopoietic growth factors such as IL-3 (10 ng/ml) for 7 days with a TRQ (racemic mixture of RR and SS isomers at 1 μM and 10 μM concentration); purified TRQ isomer E1 (10 μM and 1 μM concentration); purified TRQ isomer E2 (10 μM and 1 μM concentration) and CB (10 μM concentration). […] Similar results were shown with the purified TRQ isomers. In each experiment cells were incubated in the presence of growth factors (GF, FIG. 15).

[5] = tested on: Mouse C57B1/6 Haematopoietic stem cells; experiment: G0/G1 cell cycle of sorted haematopoietic stem cells, 2 h incubation (Example 17); assay type: cell-based; settings: 2 hours incubation with growth factors
Method: Mouse C57B1/6 Haematopoietic stem cells were enriched with bone marrow cells by magnetic sorting. Only cells expressing surface tyrosine kinase were sorted. Cells were incubated for 2 hours with growth factors (IL-3 10 ng/ml, IL-6 10 ng/ml, SCF 50 ng/ml) and TRQ and its enantiomers, E1 and E2.
After 2 hours of incubation, cells were washed and incubated with […] for 30 minutes read by FACS scan.

[6] = target: T2, Organic Cation Transporter-3 (OCT-3) (Mus musculus, UniProt Q9WTW5); experiment: Histamine uptake by bone marrow cells; assay type: cell-based, murine
T2 construct: from tissue; host or cells: total bone marrow cells
T2 sequence (Q9WTW5 1-551): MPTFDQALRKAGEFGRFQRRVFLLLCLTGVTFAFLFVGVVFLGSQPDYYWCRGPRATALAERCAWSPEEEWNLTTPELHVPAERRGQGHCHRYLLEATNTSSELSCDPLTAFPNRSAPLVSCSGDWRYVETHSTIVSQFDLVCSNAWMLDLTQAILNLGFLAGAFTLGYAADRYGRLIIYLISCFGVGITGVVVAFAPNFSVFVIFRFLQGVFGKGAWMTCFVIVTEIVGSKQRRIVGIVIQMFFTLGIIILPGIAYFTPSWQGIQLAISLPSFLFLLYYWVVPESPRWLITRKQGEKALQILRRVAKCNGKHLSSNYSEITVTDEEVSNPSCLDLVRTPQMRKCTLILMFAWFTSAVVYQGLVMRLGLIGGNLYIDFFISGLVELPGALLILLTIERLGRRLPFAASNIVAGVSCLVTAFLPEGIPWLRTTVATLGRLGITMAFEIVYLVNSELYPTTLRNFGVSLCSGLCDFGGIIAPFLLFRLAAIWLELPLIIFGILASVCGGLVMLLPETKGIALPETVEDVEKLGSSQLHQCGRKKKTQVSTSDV
Method: Cell cultures. Bone marrow (BM) cells were prepared as reported (Schneider, et al. J. Immunol. 139:3710-717) and adjusted to a final concentration of 2.5×10^6 per ml in culture medium (MEM) supplemented with 10% horse serum. Various doses (10^−5-10^−7 M) of Clobenpropit or Tritoqualine were added shortly before the addition of IL-3 (1 ng/ml), followed by a 24-h incubation at 37° C., 5% CO2.
Cytokine assays, measurement of histamine production, and uptake. IL-6 and IL-4 production was measured in cell supernatants recovered after a 24-h incubation. Histamine was quantified by an automated continuous flow spectrofluorometric technique (Schneider, et al. J. Immunol. 139:3710-717). For binding experiments, 10^6 total BM cells were plated in round-bottomed 96-well polypropylene plates (Costar). Unless stated otherwise, the cells were incubated (37° C., 5% CO2) for 3 h with 3 μCi/ml of [^3H]histamine dihydrochloride (2.5×10^−7 M; 12 Ci/mmol) in a final volume of 100 μl. Competition assays were performed as previously described (Corbel, S., et al. 1995. Blood. 86:531-539; Corbel, S., et al. 1995, FEBS Lett. 404:289-293). Each experiment was performed in triplicate, and histamine binding was calculated from total cpm after subtraction of nonspecific binding to filters.

[7] = 10 μM, compared to control (GF only)

T1 sequence (Q60857 whole entry): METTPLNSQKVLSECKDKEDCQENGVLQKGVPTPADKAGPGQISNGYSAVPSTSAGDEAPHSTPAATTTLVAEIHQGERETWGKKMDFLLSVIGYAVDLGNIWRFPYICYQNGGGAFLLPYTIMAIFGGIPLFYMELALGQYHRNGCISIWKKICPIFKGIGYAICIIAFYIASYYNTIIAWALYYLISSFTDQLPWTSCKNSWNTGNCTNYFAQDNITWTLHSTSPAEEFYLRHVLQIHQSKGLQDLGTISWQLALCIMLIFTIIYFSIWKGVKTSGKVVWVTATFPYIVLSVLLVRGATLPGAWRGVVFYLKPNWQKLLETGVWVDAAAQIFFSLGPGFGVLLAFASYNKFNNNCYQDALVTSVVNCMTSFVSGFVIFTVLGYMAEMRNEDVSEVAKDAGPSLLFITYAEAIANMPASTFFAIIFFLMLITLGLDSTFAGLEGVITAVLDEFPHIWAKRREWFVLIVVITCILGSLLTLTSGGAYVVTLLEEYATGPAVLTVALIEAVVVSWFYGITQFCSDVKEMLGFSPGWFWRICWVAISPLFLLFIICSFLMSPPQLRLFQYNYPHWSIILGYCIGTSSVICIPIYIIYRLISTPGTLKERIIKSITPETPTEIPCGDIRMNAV

Row | Structure (SMILES) | inhibition of serotonin uptake ([1]; 1 μM) | inhibition of serotonin uptake ([1]; 10 μM) | inhibitory activity of cell proliferation (CFC) ([2]; 10 μM) | H4R agonist activity (percentage of cells at the G0/G1 phase) [3] | percentage of cells at the G0/G1 phase / inhibitory activity of cell proliferation ([4]; 1 μM) | percentage of cells at the G0/G1 phase / inhibitory activity of cell proliferation [4, 7] | inhibition of G0/G1 phase [5] | inhibition of histamine uptake ([6]; 1 μM) | inhibition of histamine uptake ([6]; 10 μM) | effect on biogenic monoamine uptake by SERT ([1]; listed as TRQ) | inhibition of proliferation of CFC ([2]; Example 16, 10 μM, IL-3 10 ng/ml, listed as TRQ) | inhibitory activity of cell proliferation (CFC) ([2]; 1 μM) | percentage of cells at the G0/G1 phase / inhibitory activity of cell proliferation ([4]; 1 μM, listed as TRQ) | percentage of cells at the G0/G1 phase / inhibitory activity of cell proliferation ([4]; 1 μM, listed as racemic TRQ) | effect on biogenic monoamine uptake by OCT-3 ([6]; listed as TRQ)
1 | CCOc1c(N)c2c(c(OCC)c1OCC)[C@@H]([C@@H]1c3c(cc4c(c3OC)OCO4)CCN1C)OC2=O [E2] | negligible | greatly reduced | exerted inhibitory activity of cell proliferation | H4R agonist activity similar to the one of CB | higher percentage of cells at the G0/G1 phase than the racemic TRQ | exerted inhibitory activity of cell proliferation | 57% | negligible | greatly reduced | – | – | – | – | – | –
2 | CCOc1c(N)c2c(c(OCC)c1OCC)[C@H]([C@H]1c3c(cc4c(c3OC)OCO4)CCN1C)OC2=O [E1] | negligible | greatly reduced | slightly more potent than isomer E2 | H4R agonist activity similar to the one of CB | higher percentage of cells at the G0/G1 phase than the racemic TRQ | slightly more potent than isomer E2 | approximately 50% | negligible | greatly reduced | – | – | – | – | – | –
3 | CCOc1c(N)c2c(c(OCC)c1OCC)C(C1c3c(cc4c(c3OC)OCO4)CCN1C)OC2=O (racemic) [Tritoqualine, 7-Amino-4,5,6-triethoxy-3-(5,6,7,8-tetrahydro-4-methoxy-6-methyl-1,3-dioxolo[4,5-g]isoquinolin-5-yl) phthalide] | – | – | – | – | – | also increased the percentage of cells at the G0/G1 phase | approximately 50% | – | – | do not significantly alter; also recorded: does not affect | more potent inhibitor of cell proliferation than the Clobenpropit | less inhibitory activity in comparison to 10 μM CB | also increased the percentage of cells at the G0/G1 phase | less inhibitory activity in comparison to 10 μM CB | do not significantly alter; also recorded: does not affect
